Measurements taken from patent EP3426036B1, “CROP ENHANCEMENT” (priority 2016, dated 2017).

Experiments:
Format in all cases: in vivo
[1] = test system: spring wheat (Triticum aestivum L.) of the variety Taifun; experiment: Whole plant transpiration analysis
Description: For whole plant transpiration analysis, spring wheat (Triticum aestivum L.) of the variety Taifun was grown under pest free conditions in 1.2 L growth columns filled with a field soil (sandy loam). Plants were daily watered to a target soil water content of 0.25 g H2O g^-1 dry soil. Plant growth and transpiration analysis was in growth chambers at 25/18 °C (day/night), 60 % relative humidity and a light intensity of 600 µmol m^-2 s^-1 at 14 hours of photoperiod. Transpiration was measured by monitoring the weight of the plant-pot-system with an automated weighing system. Application of compound I formulated as EC 100 at 75 g ha^-1 was done with a track sprayer at 200 L ha^-1 when plants were at BBCH 23. Transpiration was monitored at optimal watering for seven days after application, afterwards watering was stopped. The experimental layout was a randomized complete block design with nine replications per treatment; one experimental unit was two plants per pot. The transpiration before treatment was used as covariant for statistical analysis (ANOVA, Agstat 1.6 / ACSAP 4.29).

[2] = test system: bread wheat (Triticum aestivum L.) and durum wheat (Triticum durum Desf.); experiment: Further wheat field trials under controlled and natural drought stress (Example 1e); conditions: for average grain yield increase compared to untreated check / mean TGW increase versus untreated check: multitrial analysis; for average grain yield increase compared to untreated check: all 26 disease-free modalities, 30 or 75 g ha^-1; for mean TGW increase versus untreated check: controlled and natural drought stress, 20 modalities; for grain yield increase compared to untreated check: only trials under controlled drought stress conditions
Excerpt: Wheat field trials were designed as randomized complete blocks with six replicates. Sowing, fertilization and general crop maintenance were done in accordance to locally accepted best practice. Crop protection maintenance products were applied preventatively only if required across all trial area (check and experimental plots and boundary areas) including locally registered seed treatment products, herbicides and insecticides. In case of potential disease attack, DMI and/or contact fungicides were applied preventatively. Application of fungicides from Qo inhibitors (strobilurines) and SDHI groups were not allowed to avoid possible interaction with compound I experimental treatments. Any products with plant growth regulator effects were excluded as well. Pesticides were applied not less than three to four days before or after experimental applications of compound I.
Following assessments were taken: general phytotoxicity at 7 and 14 days after application, general pest damage ratings before harvest, grain yield adjusted to 10% standard moisture (calculation based on fresh grain weight and grain moisture at harvest), thousand grain weight (TGW) adjusted to 10% standard moisture.
Entire plots or only central treated areas were harvested manually using cutters with stationary threshers (trials located in Argentina, Egypt and India) or with small-plot combine-harvesters (trials located in France, Italy and USA).
Single trial statistical analysis of variance (ANOVA) was done with Agstat 1.6 / ACSAP 4.29. Multi-trial analysis was based on paired t-test with comparison of compound I experimental treatments versus untreated checks and was done with TIBCO® Spotfire® 7.0.1.
To minimize risk of environmental impacts from rain on drought stress period and level, all proposed locations were validated through internal Environment and Crop Modelling process. This modelling allowed to calculate the potential drought stress intensity through estimation of climatic cumulative water deficit (sum of all daily water deficit during reproductive stage of wheat development). Daily water deficit was calculated as difference between daily precipitation and daily evapotranspiration by wheat plants. Thirty-eight candidate locations were proposed as suitable for drought stress trials. We performed field trials at fifteen locations from which we present results from the eleven disease-free trials that originated from seven locations: Egypt (Kaha), Italy (Foggia), India (Dongargaon, Mandleshwar and Sanwer) and USA (Woodland, CA; Jerome, ID).
Each field trial had two adjacent blocks: well-watered (WW) block with untreated check plots used for stress level estimation and grain yield reference and water-stressed (WS) block with experimental treatments including untreated check plots. Plot size varied between trials from 8.45 m^2 (Woodland, US) up to 30 m^2 (Kaha, EG) and harvested plot size was from 8.45 m^2 (Woodland, US) up to 20.7 m^2 (India). Seven locally adapted drought sensitive commercial varieties of spring and winter bread wheat (Triticum aestivum L.) and durum wheat (Triticum durum Desf.) were tested: var. Massimo Meridio (Foggia, IT), var. Saha 94 and Sods 12 (Kaha, EG), var. GW322 and GW366 (India), var. Alturas (Jerome, US) and var. Summit 515 (Woodland, US).
To manage drought stress, three types of water irrigation systems were used: precise drip irrigation (Kaha, EG; Foggia, IT; Woodland, US), solid-set sprinkler irrigation (Jerome, US) and flood irrigation (all sites in India). Plants in WW blocks were well irrigated from sowing till harvest to compensate 100% of evapotranspiration demand, targeting the optimum yield achievable in the trial area. Plants in WS blocks were irrigated from planting till the beginning of pre-stress period exactly at the same level of water supply as in WW conditions. […]

Soybean plants = experiment: Crop enhancement effect on soybean under drought conditions, yield analysis (Example 2a); conditions: drought until day 65
Description: Soybean plants were grown in pots. The plants were treated at R1 (36 days after sewing) or R3 (44 days after sewing) with the compound of formula I at 0.75 l/ha. An untreated control plant was also included. After treatment, the plants were subjected to drought conditions until the end of the trial at day 65. Five replicates of the control and each treatment were harvested for analysis of yield and enzymatic activity. […]

glutathione reductase = experiment: Enzymatic analysis of soybean plants under drought conditions (Example 2a); conditions: 0.75 l/ha at R1 or R3
Description: Soybean plants were grown in pots. The plants were treated at R1 (36 days after sewing) or R3 (44 days after sewing) with the compound of formula I at 0.75 l/ha. An untreated control plant was also included. After treatment, the plants were subjected to drought conditions until the end of the trial at day 65. Five replicates of the control and each treatment were harvested for analysis of yield and enzymatic activity.

In the case of `Cn1cc(C(=O)Nc2cccc3c2C2CCC3C2=C(Cl)Cl)c(C(F)F)n1` (stereo not drawn) [Compound I, benzovindiflupyr], the “impact on biomass accumulation” value ([1]; EC 100 at 75 g ha^-1) is reported as “no negative impact”, the “transpiration decrease compared to untreated control plants” value ([1]; EC 100 at 75 g ha^-1, BBCH 23, within one day, constant soil water content) is reported as “about 8%” and the shoot dry weight ([1]; EC 100 at 75 g ha^-1, end of the experiment, control plants same value) is reported as 6.3 ± 0.4 g plant^-1. The “transpiration rate during soil drying compared to untreated control plants” value ([1]; EC 100 at 75 g ha^-1, irrigation withheld eight days after application) was “transiently higher transpiration rate”, the “duration of transpiration decrease” value ([1]; EC 100 at 75 g ha^-1, optimal watering) was “consistent for at least seven days” and the general phytotoxicity ([2]; EC 100 at 30 or 75 g ha^-1, BBCH 39 to 55, all trials, 7 and 14 days after application) was “did not cause any phytotoxic effects”. The “average grain yield increase with 75 g ha^-1 compared to the rate of 30 g ha^-1” value ([2]; controlled drought stress conditions) was “+0.23 dt ha^-1”, the “average grain yield increase compared to untreated check” value [2] was “+5.2%” and the “average grain yield increase compared to untreated check” value ([2]; 95% CI +1.45 to +3.21 dt ha^-1) was “+2.33 dt ha^-1”. For the same compound, the “mean TGW increase versus untreated check” value [2] was “+1.9%”, the “mean TGW increase versus untreated check” value ([2]; 95 % CI [+0.23, +1.13] g 1000 seeds^-1) was 0.68 g 1000 seeds^-1 and the “grain yield increase compared to untreated check” value [2] was “+6.0%”. For the same compound, the “grain yield increase compared to untreated check” value ([2]; 95% CI [+1.69, +4.03] dt ha^-1) was “+2.86 dt ha^-1”, the “TGW compared to untreated check” value ([2]; single trial ANOVA, p ≤ 0.05) was “did not detect any significant effect” and the “grain yield adjusted to 10% standard moisture compared to untreated check” value ([2]; single trial ANOVA, p ≤ 0.05) was “did not detect any significant effect”. For the same compound, the “Dry weight of pods” value (Soybean plants; 0.75 l/ha @ R1) was 114.8 % of control, the “Dry weight of pods” value (Soybean plants; 0.75 l/ha @ R3) was 122.7 % of control and the “production of the enzyme glutathione reductase compared to the untreated control” value (glutathione reductase) was “increase in the production of the enzyme glutathione reductase”.
